Measurements from PubChem BioAssay AID2060491 (Molecular Pharmacology Branch, DTP, NCI, 2025).

System: 857933-349-R-J2-PDC complex spheroids, viability
Test: Anticancer human tumor 857933-349-R-J2-PDC patient-derived colon adenocarcinoma cell line growth inhibition [GQUAD]
Conditions: for IC50: curve of first compound; for viability, T/C: stronger effect = lower value
Text: DNA G-quadruplex Stabilizer Agents in Combinations in Complex Spheroids
A high-throughput screen of multi-cell type tumor spheroids was designed to identify active combinations of DNA G-quadruplex stabilizer agents and targeted small molecules. Complex spheroids include a stromal component modeled by human endothelial cells (HUVEC) and fibroblasts modeled by human mesenchymal stem cells (MSCs). The concentration ranges selected for each drug and investigational agent were based upon clinically achievable concentrations if the clinical Cmax of the agent was known.
Compounds. The drugs and investigational agents: pidnarulex (CX-5461; NSC782164), APTO-253 (NSC789042), BRACO-19 (NSC847499), peposertib (NSC802822), ceralasertib (NSC780249), elimusertib (NSC800525), camonsertib (NSC841442), AZD-1390 (NSC803789), olaparib (NSC753686), talazoparib (NSC767125), ART-558 (NSC835418), sotorasib (NSC818433), MRTX-1133 (NSC836407), SN-38 (NSC673596), topotecan (NSC609699), etoposide (NSC141540), doxorubicin (NSC123127), gemcitabine (NSC613327), 5-fluorouracil (NSC19893), paclitaxel (NSC125973), vemurafenib (NSC761431), panobinostat (NSC761190), R-306465 (JNJ-16241199; NSC773264), adavosertib (NSC754352), TP-3654 (NSC805149), carboplatin (NSC241240), KSQ-4279 (NSC840948), and staurosporine (NSC755774) were obtained from the National Cancer Institute (NCI) Developmental Therapeutics Program Chemical Repository (34). The FDA-approved anticancer drug set is available from the NCI Developmental Therapeutics Program. […] The stock solutions were prepared in dimethyl sulfoxide (DMSO, Sigma-Aldrich, St. Louis, MO, cat. D2650) at 800-fold the tested concentration and stored at -70 degrees C prior to their use. All drugs and investigational agents were tested over a range starting from a high concentration at or near the clinical Cmax and decreasing in half-log increments. If the clinical Cmax for an agent had not been determined, the highest concentration tested was 10 microM.
2.3 Cell Culture. All cells were maintained in an incubator at 37 degrees C and 5% CO2 with 95% humidity. The PDC lines were cultured according to standard operating procedures established by the NCI PDMR. All PDCs were thawed and cultured in Matrigel-coated flasks prepared with a working solution of 1X Ham's F-12 nutrient mix, without supplementation (Invitrogen, cat. 11765054), 100 U/mL penicillin-streptomycin (Invitrogen, cat. 15140122), and 2.5% Matrigel (Corning Inc., cat. 354248) for the first three passages. The 857933-349-R-J2-PDC line was cultured in 6C/Colon 1B media, which includes advanced DMEM/F-12 (Thermo Fisher Scientific, cat. 12634028), 10 mM HEPES (Thermo Fisher Scientific, cat. 15630080), 1X GlutaMAX supplement (Thermo Fisher Scientific, cat. 35050061), 0.1 mg/mL primocin (InvivoGen, cat. ant-pm-2), 10% defined fetal bovine serum, heat inactivated (HyClone Laboratories Inc., cat. SH30070.03HI), 50% L-WRN conditioned media (ATCC, cat. CRL-3276), 1.25 mM N-Acetyl-L-cysteine (Sigma-Aldrich, cat. A9165), 10 mM nicotinamide (Sigma-Aldrich, cat. N0636), 1X B-27 supplement (Thermo Fisher Scientific, cat. 17504044), 1X N-2 supplement (Thermo Fisher Scientific, cat. 17502048), 10 microM Y-27632 dihydrochloride (Tocris Bioscience, cat. 1254), and 50 ng/mL human EGF recombinant protein (Thermo Fisher Scientific, cat. PHG0311). The 485176-168-R4-J1-PDC line was cultured in Panc media, which includes all 6C/Colon 1B media components plus 100 ng/mL human FGF-10 (Thermo Fisher Scientific, cat. 100-26), 500 nM SB-431542 (Selleckchem, cat. S1067), and gastrin (Tocris, cat. 3006).
[…]

[1] = second compound 0.0316 µM, first compound 0.0316 µM
[2] = second compound 0.0316 µM, first compound 0.1 µM
[3] = second compound 0.0316 µM, first compound 0.316 µM
[4] = second compound 0.0316 µM, first compound 1 µM
[5] = second compound 0.0316 µM, first compound 3.16 µM
[6] = second compound 0.0316 µM, first compound 10 µM
[7] = second compound 0.1 µM, first compound 0.0316 µM
[8] = second compound 0.1 µM, first compound 0.1 µM
[9] = second compound 0.1 µM, first compound 0.316 µM
[10] = second compound 0.1 µM, first compound 1 µM
[11] = second compound 0.1 µM, first compound 3.16 µM
[12] = second compound 0.1 µM, first compound 10 µM
[13] = second compound 0.316 µM, first compound 0.0316 µM
[14] = second compound 0.316 µM, first compound 0.1 µM
[15] = second compound 0.316 µM, first compound 0.316 µM
[16] = second compound 0.316 µM, first compound 1 µM
[17] = second compound 0.316 µM, first compound 3.16 µM
[18] = second compound 0.316 µM, first compound 10 µM
[19] = second compound 1 µM, first compound 0.0316 µM
[20] = second compound 1 µM, first compound 0.1 µM
[21] = second compound 1 µM, first compound 0.316 µM
[22] = second compound 1 µM, first compound 1 µM
[23] = second compound 1 µM, first compound 3.16 µM
[24] = second compound 1 µM, first compound 10 µM
[25] = second compound 3.16 µM, first compound 0.0316 µM
[26] = second compound 3.16 µM, first compound 0.1 µM
[27] = second compound 3.16 µM, first compound 0.316 µM
[28] = second compound 3.16 µM, first compound 1 µM
[29] = second compound 3.16 µM, first compound 3.16 µM
[30] = second compound 3.16 µM, first compound 10 µM
[31] = second compound 10 µM, first compound 0.0316 µM
[32] = second compound 10 µM, first compound 0.1 µM
[33] = second compound 10 µM, first compound 0.316 µM
[34] = second compound 10 µM, first compound 1 µM
[35] = second compound 10 µM, first compound 3.16 µM
[36] = second compound 10 µM, first compound 10 µM
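Note: spheroids exposed to compounds for one week before readout.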
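Throughout, for viability, T/C: percent viability relative to vehicle DMSO wells taken as 100%.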

Nc1ccn(C2OC(CO)C(O)C2(F)F)c(=O)n1 (centres undefined) + Cc1[nH]c2ccc(F)cc2c1-c1nc2c3cccnc3c3ncccc3c2[nH]1
IC50 (second compound 0.0316 µM): 337 nM | IC50 (second compound 0.1 µM): 153 nM | IC50 (second compound 0.316 µM): 339 nM | IC50 (second compound 1 µM): 169 nM | IC50 (second compound 3.16 µM): 270 nM | IC50 (second compound 10 µM): 255 nM | viability, T/C [1]: 73.6% | viability, T/C [2]: 50.7% | viability, T/C [3]: 53% | viability, T/C [4]: 12.2% | viability, T/C [5]: 8.63% | viability, T/C [6]: 7.04% | viability, T/C [7]: 81.9% | viability, T/C [8]: 55.6% | viability, T/C [9]: 40.1% | viability, T/C [10]: 13.4% | viability, T/C [11]: 8.84% | viability, T/C [12]: 6.64% | viability, T/C [13]: 71.9% | viability, T/C [14]: 54.7% | viability, T/C [15]: 53.2% | viability, T/C [16]: 12% | viability, T/C [17]: 7.77% | viability, T/C [18]: 6.81% | viability, T/C [19]: 76.5% | viability, T/C [20]: 54.2% | viability, T/C [21]: 45.2% | viability, T/C [22]: 10.6% | viability, T/C [23]: 8.22% | viability, T/C [24]: 6.71% | viability, T/C [25]: 74.5% | viability, T/C [26]: 53.2% | viability, T/C [27]: 50.2% | viability, T/C [28]: 11.6% | viability, T/C [29]: 8.23% | viability, T/C [30]: 7.07% | viability, T/C [31]: 73% | viability, T/C [32]: 47.9% | viability, T/C [33]: 48.8% | viability, T/C [34]: 10.1% | viability, T/C [35]: 7.69% | viability, T/C [36]: 8.66%

O=c1[nH]cc(F)c(=O)[nH]1 + Cc1[nH]c2ccc(F)cc2c1-c1nc2c3cccnc3c3ncccc3c2[nH]1
IC50 (second compound 0.0316 µM): 1720 nM | IC50 (second compound 0.1 µM): 1800 nM | IC50 (second compound 0.316 µM): 2100 nM | IC50 (second compound 1 µM): 2150 nM | IC50 (second compound 3.16 µM): 2060 nM | IC50 (second compound 10 µM): 2200 nM | viability, T/C [1]: 97.1% | viability, T/C [2]: 111% | viability, T/C [3]: 99% | viability, T/C [4]: 65.7% | viability, T/C [5]: 33.3% | viability, T/C [6]: 22.6% | viability, T/C [7]: 104% | viability, T/C [8]: 103% | viability, T/C [9]: 96.8% | viability, T/C [10]: 64.8% | viability, T/C [11]: 36% | viability, T/C [12]: 22.5% | viability, T/C [13]: 100% | viability, T/C [14]: 99.3% | viability, T/C [15]: 94% | viability, T/C [16]: 74.9% | viability, T/C [17]: 36.1% | viability, T/C [18]: 22.6% | viability, T/C [19]: 101% | viability, T/C [20]: 98.2% | viability, T/C [21]: 96.7% | viability, T/C [22]: 75.7% | viability, T/C [23]: 37% | viability, T/C [24]: 23% | viability, T/C [25]: 96.3% | viability, T/C [26]: 94.7% | viability, T/C [27]: 96.7% | viability, T/C [28]: 73.8% | viability, T/C [29]: 36.1% | viability, T/C [30]: 22.6% | viability, T/C [31]: 93.2% | viability, T/C [32]: 96.8% | viability, T/C [33]: 95.2% | viability, T/C [34]: 82% | viability, T/C [35]: 35.3% | viability, T/C [36]: 24.8%
